Data published in the supplement of paper PMC10307832.

Key:
Assay in all cases: relative viability (nuclei count vs DMSO), 5 days (fraction); higher = more cells survive
[1] = compound: C1=CC=C2C(=C1)C=CC(=C2SSC3=C(C=CC4=CC=CC=C43)O)O [IPA-3] + CC(=O)Nc1cccc(-n2c(=O)n(C3CC3)c(=O)c3c(Nc4ccc(I)cc4F)n(C)c(=O)c(C)c32)c1 [Trametinib] (partner 0.02 µM)
Procedure, shortened: (§1)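 Lung cancer cell lines in 1536-well plates got either a single drug or a fixed anchor-drug dose together with five library-drug doses (not always all listed) in √10 steps, by pin tool, on the day after seeding. Nuclei were counted after 5 days, and relative viability is the treated-to-vehicle ratio of nuclei counts. Values are medians of duplicate plates.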

[2] = compound: Cn1c(Nc2ccc(C(F)(F)F)cc2)nc2cc(Oc3ccnc(-c4ncc(C(F)(F)F)[nH]4)c3)ccc21 [RAF265] + CC1(C)CCC(c2ccc(Cl)cc2)=C(CN2CCN(c3ccc(C(=O)NS(=O)(=O)c4ccc(N[C@H](CCN5CCOCC5)CSc5ccccc5)c(S(=O)(=O)C(F)(F)F)c4)cc3)CC2)C1 [Navitoclax] (partner 0.5 µM)
Procedure, shortened: as §1

[3] = compound: Cn1c(Nc2ccc(C(F)(F)F)cc2)nc2cc(Oc3ccnc(-c4ncc(C(F)(F)F)[nH]4)c3)ccc21 [RAF265] + N=C(N)NC(=N)NCCc1ccccc1 [Phenformin] (partner 250 µM)
Procedure, shortened: as §1

[4] = compound: Cn1c(Nc2ccc(C(F)(F)F)cc2)nc2cc(Oc3ccnc(-c4ncc(C(F)(F)F)[nH]4)c3)ccc21 [RAF265] + O=C(c1cc(Cc2n[nH]c(=O)c3ccccc23)ccc1F)N1CCN(C(=O)C2CC2)CC1 [Olaparib] (partner 8 µM)
Procedure, shortened: as §1

Row | Cell Line | relative viability ([1]; first compound 0.2 µM) | relative viability ([1]; first compound 0.6325 µM) | relative viability ([1]; first compound 2 µM) | relative viability ([1]; first compound 6.325 µM) | relative viability ([1]; first compound 20 µM) | relative viability ([2]; first compound 0.01 µM) | relative viability ([2]; first compound 0.03162 µM) | relative viability ([2]; first compound 0.1 µM) | relative viability ([2]; first compound 0.3162 µM) | relative viability ([2]; first compound 1 µM) | relative viability ([3]; first compound 0.01 µM) | relative viability ([3]; first compound 0.03162 µM) | relative viability ([3]; first compound 0.1 µM) | relative viability ([3]; first compound 0.3162 µM) | relative viability ([3]; first compound 1 µM) | relative viability ([4]; first compound 0.01 µM) | relative viability ([4]; first compound 0.03162 µM) | relative viability ([4]; first compound 0.1 µM) | relative viability ([4]; first compound 0.3162 µM) | relative viability ([4]; first compound 1 µM)
1 | NCI-H2085 | 0.625 | 0.602 | 0.637 | 0.577 | 0.714 | 1.17 | 1.12 | 1.16 | 1.27 | 1.09 | 0.858 | 0.683 | 0.742 | 0.642 | 0.644 | 0.954 | 0.723 | 0.841 | 0.854 | 0.76
2 | NCI-H2087 | 0.235 | 0.267 | 0.178 | 0.227 | 0.271 | 0.995 | 0.823 | 0.692 | 0.683 | 0.568 | 0.512 | 0.413 | 0.377 | 0.331 | 0.287 | 0.757 | 0.496 | 0.64 | 0.334 | 0.373
3 | NCI-H2126 | 0.569 | 0.56 | 0.521 | 0.501 | 0.6 | 0.813 | 0.826 | 0.866 | 0.687 | 0.616 | 0.508 | 0.551 | 0.558 | 0.512 | 0.459 | 0.942 | 0.907 | 0.901 | 0.818 | 0.724
4 | NCI-H2170 | 0.958 | 0.923 | 0.868 | 0.846 | 0.993 | 0.586 | 0.434 | 0.462 | 0.3 | 0.383 | 0.408 | 0.38 | 0.453 | 0.319 | 0.366 | 0.58 | 0.485 | 0.596 | 0.438 | 0.405
5 | NCI-H2228 | 0.768 | 0.405 | 0.365 | 0.634 | 0.379 | 0.741 | 0.971 | 0.903 | 0.945 | 0.726 | 0.287 | 0.387 | 0.357 | 0.203 | 0.186 | 0.915 | 0.691 | 0.726 | 0.291 | 0.246
6 | NCI-H2347 | 0.278 | 0.276 | 0.286 | 0.268 | 0.281 | 1.03 | 0.786 | 0.864 | 0.456 | 0.467 | 0.338 | 0.426 | 0.394 | 0.218 | 0.166 | 0.644 | 0.606 | 0.57 | 0.523 | 0.384
7 | NCI-H2405 | 0.683 | 0.639 | 0.511 | 0.628 | 0.81 | 0.984 | 0.86 | 0.973 | 0.909 | 0.335 | 0.424 | 0.372 | 0.384 | 0.344 | 0.261 | 0.96 | 0.88 | 0.834 | 0.838 | 0.514
8 | NCI-H3122 | 0.294 | 0.227 | 0.262 | 0.255 | 0.216 | 1 | 1.08 | 1.01 | 1.04 | 0.967 | 0.386 | 0.385 | 0.386 | – | 0.348 | 0.609 | 0.63 | 0.631 | 0.622 | 0.611
9 | PC-3 [JPC-3] | 0.785 | 0.713 | 0.744 | 0.705 | 0.699 | 0.735 | 0.754 | 0.893 | 0.304 | 0.556 | 0.457 | 0.502 | 0.469 | – | 0.465 | 1.14 | 1.06 | 1.09 | 0.537 | 0.704
10 | PC-14 | 1.23 | 0.654 | 0.699 | 0.634 | 0.918 | 0.955 | 1.03 | 1.03 | 0.985 | 0.854 | 0.578 | 0.599 | 0.864 | – | 0.539 | 0.252 | 0.311 | 0.314 | 0.369 | 0.245
11 | RERF-LC-KJ | 1.01 | 0.877 | 0.84 | 0.872 | 0.891 | 1.08 | 0.95 | 0.851 | 0.747 | 0.841 | 0.469 | 0.42 | 0.389 | 0.408 | 0.376 | 0.952 | 0.892 | 0.759 | 0.682 | 0.575
12 | SK-LU-1 | 0.585 | 0.474 | 0.506 | 0.467 | 0.571 | 1.41 | 0.682 | 0.718 | 0.744 | 0.273 | 0.543 | 0.377 | 0.385 | 0.26 | 0.234 | 0.511 | 0.386 | 0.419 | 0.283 | 0.265
13 | SK-MES-1 | 0.568 | 0.528 | 0.618 | 0.639 | 0.659 | 1.11 | 1.01 | 1.01 | 0.361 | 0.209 | 0.62 | 0.404 | 0.341 | 0.263 | 0.2 | 0.582 | 0.308 | 0.229 | 0.208 | 0.204
14 | SW 1573 | 0.67 | 0.546 | 0.46 | 0.532 | 0.271 | 1.23 | 0.984 | 1.04 | 0.89 | 0.389 | 0.373 | 0.336 | 0.353 | 0.296 | 0.265 | 0.474 | 0.388 | 0.304 | 0.28 | 0.248
